These compounds were tested against Tyrosine-protein kinase JAK1 (Homo sapiens, UniProt P23458) (assay: ADP-Glo Kinase Assay: A control material and a test material were prepared for each concentration, in such a way that they were diluted by means of DMSO. At the same time, ATP (250 uM) and JAK substrate (JAK1, IRS-itide 40 ng/mL) were prepared, in such a way that they were diluted by means of kinase buffer (40 mM Tris-HCl pH 7.5, 20 mM MgCl2, 0.5 mg/mL BSA, 50 uM DTT).A test drug for each concentration, substrate, ATP and JAK enzyme were mixed in an eppendorf tube, and reacted in a 30° C. incubator for 40 minutes.ADP-Glo™ reagent contained in ADP-Glo™ Kinase Enzyme System (Promega, USA, V9571) was added into each eppendorf tube, and reacted in a 30° C. incubator for 40 minutes. A kinase detection reagent contained in ADP-Go™ Kinase Enzyme System was inserted into the eppendorf tube, then an integration time was set to 1 second by using Wallac Victor 2™, then luminescence was measured, and then JAKs phosphorylation inhibition ability of the test material was analyzed. The concentration of the compound, which causes 50% of the JAK enzyme activity inhibition in comparison With the control group, was determined as IC50 (nM) of an inhibitor, wherein the results thereof are shown in a following table 1.).
Sequence of Tyrosine-protein kinase JAK1 (P23458 whole entry): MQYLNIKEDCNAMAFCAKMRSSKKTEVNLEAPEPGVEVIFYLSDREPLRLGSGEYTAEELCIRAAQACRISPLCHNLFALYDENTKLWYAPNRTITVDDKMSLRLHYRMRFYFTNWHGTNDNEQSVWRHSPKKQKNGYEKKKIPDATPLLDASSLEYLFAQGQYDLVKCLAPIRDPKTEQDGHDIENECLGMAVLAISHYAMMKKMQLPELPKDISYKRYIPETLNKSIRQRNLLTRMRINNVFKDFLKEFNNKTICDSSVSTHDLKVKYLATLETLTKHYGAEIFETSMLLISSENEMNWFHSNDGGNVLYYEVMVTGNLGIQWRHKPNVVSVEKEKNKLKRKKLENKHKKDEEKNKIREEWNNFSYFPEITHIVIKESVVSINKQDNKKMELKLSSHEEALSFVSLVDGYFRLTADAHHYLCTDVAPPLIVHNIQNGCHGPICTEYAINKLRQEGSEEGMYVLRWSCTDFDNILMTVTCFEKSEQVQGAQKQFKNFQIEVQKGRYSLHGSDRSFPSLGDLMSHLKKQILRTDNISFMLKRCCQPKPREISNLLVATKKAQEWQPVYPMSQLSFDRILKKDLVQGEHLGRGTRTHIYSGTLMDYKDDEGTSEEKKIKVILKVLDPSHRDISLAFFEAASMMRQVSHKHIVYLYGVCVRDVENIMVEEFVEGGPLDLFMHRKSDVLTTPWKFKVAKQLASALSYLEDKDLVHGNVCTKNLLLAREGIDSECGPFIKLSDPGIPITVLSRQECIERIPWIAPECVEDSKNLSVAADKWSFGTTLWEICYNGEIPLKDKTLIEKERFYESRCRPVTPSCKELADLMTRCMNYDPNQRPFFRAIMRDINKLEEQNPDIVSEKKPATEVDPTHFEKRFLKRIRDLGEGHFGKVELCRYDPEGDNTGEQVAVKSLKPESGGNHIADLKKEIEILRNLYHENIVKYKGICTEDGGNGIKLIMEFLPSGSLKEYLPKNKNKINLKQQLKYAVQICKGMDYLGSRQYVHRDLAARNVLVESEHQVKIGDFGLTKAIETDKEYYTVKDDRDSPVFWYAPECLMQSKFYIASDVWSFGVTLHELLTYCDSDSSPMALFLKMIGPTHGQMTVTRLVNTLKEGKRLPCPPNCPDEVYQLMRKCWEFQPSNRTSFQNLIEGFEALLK

IC50, > 200 nM:
O=C(Nc1cc(C2=CCN(C(=O)CBr)CC2)c2cc[nH]c2n1)C1CC1
CC1CN(C(=O)c2cc(Cl)ncc2Cl)CC=C1c1cc(NC(=O)C2CC2)nc2[nH]ccc12 (centres undefined)
O=C(Nc1cc(-c2ccc(CC(=O)N3CCN(S(=O)(=O)C(F)(F)F)CC3)cc2)c2cc[nH]c2n1)C1CC1
CCS(=O)(=O)Nc1ccc(-c2cc(NC(=O)C3CCCCC3)nc3[nH]ccc23)cc1F
CCC(=O)Nc1cc(-c2ccc(NS(=O)(=O)CC)c(F)c2)c2cc[nH]c2n1
CCS(=O)(=O)Nc1ccc(-c2cc(NC(=O)C3CCCC3)nc3[nH]ccc23)cc1F
CCS(=O)(=O)Nc1ccc(-c2cc(NC(=O)Cc3ccccc3)nc3[nH]ccc23)cc1F
O=C(Nc1ccc(F)cc1)Nc1ccc(-c2cc(NC(=O)C3CC3)nc3[nH]ccc23)cc1
CC1CN(C(=O)c2cc(Cl)cc(Cl)c2O)CC=C1c1cc(NC(=O)C2CC2)nc2[nH]ccc12 (centres undefined)
